In patent US20260242738A1, “ALK5 INHIBITORS FOR EFFICIENT DERIVATION OF MESENCHYMAL STEM CELLS FROM EMBRYONIC STEM CELLS” (SCRIPPS HEALTH, priority 2022, published 2026):

Key:
H9 ESC = assay: Flow cytometry of MSC surface markers after ESC to MSC differentiation with ALK-5 inhibitor; type: cell-based, human; details: H9 ES-MSC
Method: An overview of the differentiation process is provided in FIG. 1, panel K. To create cell clusters or embryoid bodies of uniform size, ESCs were removed from CellStart culture using Accutase® for 2-5 minutes until single cells were observed. […] After 24 hours, the cell clusters were suspended at 2.5-3×10^5 cells per ml in ultra-low adherent 6 well plates (Corning) in StemPro-34 serum free medium (ThermoFisher) supplemented with 2 mM L-glutamine (ThermoFisher Scientific), 50 μg/ml Ascorbic acid (Stemcell Technologies, Vancouver, Canada) and 1.8 μl/ml ITS-G (100× Insulin-Transferrin-Selenium; ThermoFisher); termed as “complete SP-34 medium”.
The medium was changed every 2 days by removing cell clusters into 15 ml sterile tubes and permitted to gravity settle for 10 minutes at room temperature. Most of the media was removed using a pipette to leave approximately 300-500 μl of medium. Freshly made medium (with the appropriate ALK5 inhibitor or DMSO) was replaced at the same volumes and well number into new ultra-low adherent plates.
After treatment with the appropriate ALK5 inhibitor, the cell clusters were removed by gravity settling and suspended in complete SP-34 medium supplemented with bFGF 20 ng/ml (without any ALK-5 inhibitor or DMSO) and transferred onto fibronectin (FN) coated (10 μg/ml; Fibronectin from human plasma, Sigma-Aldrich, St. Louis, MO) T75 cm^2 flasks (passage zero (P0)). The emerging cells and remaining cell clusters were exposed to Accutase® for 5-10 minutes, gently triturated and counted. The cells were seeded at […] in T75 FN coated flask (P1) and medium changed every 3-4 days until 80-90% confluence. At this point, the cells were detached using Accutase® for continued culture, screened for surface marker phenotype characterization (flow cytometry), placed into 3D cultures to assess chondrogenic differentiation capacity, or preserved in liquid nitrogen.
Cells were detached using Accutase®, washed and suspended in FACS buffer at a concentration of 0.2×10^6 cells per 100 μl. A panel of CD molecules were used, each with the following fluorochromes: CD34-FITC, CD45-BV510, CD73-APC (BioLegend, San Diego, California) CD90-PE-Cy7, and CD105-BV650 (BD Biosciences, Franklin Lakes, New Jersey). Matching isotype control IgGs with the same fluorochrome conjugates were used for background gating. […] Data was acquired with the Novocyte flow cytometer (ACEA Biosciences Inc. San Diego, CA) and analyzed using FlowJo software (version 10, FlowJo, LLC, Ashland, OR) to determine percentage positive signal for each molecule relative to isotype background non-specific signal controls.

[1] = tested on: ESC cell lines (H9, AND-1, AND-2, and SHEF-1); details: monolayer cultures on Matrigel coated flasks, before sorting; cited from earlier work
HAD ES-MSC = assay: Fibrin-ECM hydrogel construct culture on needle array; type: cell-based, human; details: 20×10^6 cells per ml, 3 weeks of culture, N=8
Method: Monolayer cultured ES-MSC were suspended in a hydrogel wafer composed of collagen II (Innovative Research Inc. Novi, MI), hyaluronate (Supartz FX sodium hyaluronate, Seikagaku Corp. Tokyo, Japan), chondroitin sulfate (Sigma-Aldrich) and fibrin (Baxter Healthcare, Deerfield, IL) at a density of 20×10^6 cells per ml. The fibrinogen and thrombin components were prepared separately. To each fibrinogen component, 2 mg/ml sodium hyaluronate, 2 mg/ml chondroitin sulfate and 6 mg/ml collagen II was added (2× concentration of final). Cells were added to the thrombin component at a density of 40×10^6 cells per ml. Thrombin and fibrinogen components in individual syringes were attached to a Baxter DUO mixing syringe and extruded to form the coagulated constructs. The constructs were either directly implanted into ex vivo cartilage tissue or coagulated in 6 well tissue culture plates for 4 to 8 minutes before 4-6 ml of chondrogenic medium was added. To prevent shrinkage of the constructs during culture, the gels were held on AdminPatch microneedle arrays (AdminMed, Sunnyvale, CA) for the duration of their culture.
Cell pellets and explants were fixed in Z-Fix (3.7% formaldehyde, Anatech Ltd., Battle Creek, MI), processed for embedding in paraffin, and cut into 4 μm-thick sections. Sections were stained with Safranin-O and Fast Green to visualize glycosaminoglycan distribution in the tissues. […]

HUES9 ESC = details: 10 μM SB431542, fibronectin, monolayer with 10% FBS; cited from earlier work

SMILES: NC(=O)c1ccc(-c2nc(-c3ccc4c(c3)OCO4)c(-c3ccccn3)[nH]2)cc1 [SB431542]
- CD73 positive cells (H9 ESC; SB431542 10 μM 10 days, N=5): 99±1%
- CD90 positive cells (H9 ESC; SB431542 10 μM 10 days, N=5): 99±1%
- CD105 positive cells (H9 ESC; SB431542 10 μM 10 days, N=5): 94±4%
- triple positive for CD73, CD90 and CD105 (H9 ESC; co-expression analysis): 92±9%
- CD73+CD90+CD34− cell population [1]: 42%
- cartilaginous tissue in fibrin-ECM construct (Safranin O fast green) (HAD ES-MSC): production of cartilaginous tissue
- enrichment for MSC markers CD44, CD73, CD146, and CD166 (HUES9 ESC): highly enriched
